Results on two molecules are retold here after article PMC4766415 (Nature Communications, 2016).

The test system of one series is FAP. On the set-up: method as in PMID 24368466. The following applies: patients with FAP, 2 years treatment; cited from earlier work.
Details of series [1]: method as in PMID 17107884. The following applies: cited from earlier work.
Series [2] has as its target TTR. Further details: method as in PMID 14968122. The following applies: cited from earlier work.
A further series concerns T1, L55P-TTR.
T1 construct: TTR is composed of four identical 127 amino-acid residue β-sheet-rich subunits; expressed in transfected cells; host or cells: rat Schwannoma RN22 cells, metallothionein promoter, ZnSO4 induction
Kind of series: Dot-blot filter assay of L55P-TTR aggregation secreted by RN22 cells. It counts as cell-based, human. The following applies: 1 μM in the medium. As to the method: The extent of extracellular L55P-TTR aggregation was monitored by a filter trap assay followed by TTR immunodetection.
The rat Schwannoma cell line RN22 stably co-transfected with TTR L55P cDNA under the control of the metallothionein promoter was used to test the inhibitors of TTR aggregation as in ref. [51]. […] TTR in the medium was quantified by ELISA, and the volume of medium corresponding to 500 ng of TTR was applied on to a 0.2-μm pore cellulose acetate membrane filter (Schleicher and Schuell) using a manifold system (Gibco BRL) to separate soluble proteins from aggregates. […] Detection was performed with ECL (GE Healthcare). Dot blot quantification was performed using the ImageQuant program. The percentage of aggregation inhibition was calculated as 100 × ((Control—Treated)/Control). Experiments were repeated three times in triplicate.

On the set-up of series [3]: method as in Vyndaqel European Public Assessment Report (EMA/815723/2011). As to conditions: single dose of 120 mg; ref Vyndaqel European Public Assessment Report (EMA/815723/2011); cited from earlier work.
Series [4] has as its system T2, TTR in human plasma (WT-TTR and V30M-TTR).
T2 construct: human plasma from a normal (WT-TTR) and from an FAP patient carrying the V30M-TTR mutation; from tissue; host or cells: human plasma of normal donors and of V30M-TTR carriers
Kind of series: [125I]T4 competition in human plasma, native gel electrophoresis. It counts as binding. As to conditions: 1 mM; plasma from normal (WT-TTR) and V30M-TTR FAP patient; 1 h RT. An excerpt: Error bars indicate s.e.m. (n=3). […] Error bars indicate s.e.m. (n=3).

A further series has as its system AC16 cells. Kind of series: TTR-induced cytotoxicity in AC16 cells, resazurin reduction assay. It counts as cell-based, human. As to conditions: 16 μM compound, 8 μM TTR; 24 h. An excerpt: Error bars indicate s.e.m. […] Error bars indicate s.e.m. (n=4). […] Error bars indicate s.e.m. (n=3).
Series [5] concerns TTR. Further details: method as in Vyndaqel European Public Assessment Report (EMA/815723/2011). As to conditions: single dose of 120 mg; ref Vyndaqel European Public Assessment Report (EMA/815723/2011); cited from earlier work.
The target in the next series is Y78F-TTR (Homo sapiens, UniProt P02766, Y98F). Kind of series: Y78F-TTR aggregation inhibition, turbidity at 340 nm, pH 4.2.
The target of a further series is V122I-TTR. On the set-up: method as in PMID 23716704. As to conditions: subunit exchange assays; cited from earlier work.
Series [6] has as its system WT and V30M-TTR tetramers in plasma. In words: TTR tetramer stability in human plasma by IEF under semi-denaturing conditions. It counts as biochemical. The following applies: 1.4 mM, overnight 4 °C, 4 M urea.
In series [7] the test system is Rat Schwannoma cells (RN22). In words: Caspase-3 activation by Y78F-TTR oligomers in RN22 cells. The following applies: Y78F-TTR aggregates 2 μM formed with 20 μM compound; 24 h exposure.

Structures are written as SMILES. Where two headings read alike, the source gives them in different places. A value given as a limit tells only on which side of the number the result lay.

On to `O=C(O)c1cc(-c2ccc(F)cc2F)ccc1O` [diflunisal], for which, in the series with FAP, the “effect on progression of neurological impairment” value is “reduced the rate of progression of neurological impairment”. In addition, in series [1], the “concentration in serum after oral administration” value was > 140 µM. Further, the Kd was 75 nM on TTR [2] (read-out: Kd1) and 1100 nM on TTR [2] (read-out: Kd2).

Take `O=C(O)c1ccc2nc(-c3cc(Cl)cc(Cl)c3)oc2c1` [tafamidis]: in the series on L55P-TTR, the “reduction of L55P-TTR aggregation compared with untreated cells” value is ~90%. In addition, the “average concentration in plasma at Tmax” value in series [3] is 14.4 µM. In series [4], the “radioactive T4-TTR band in the presence of compound” value is given as “no longer visible”. For the same molecule, the “effect on WT-TTR and V122I-TTR induced reduction in cell viability” value with AC16 cells is “rescued this toxic effect”. Besides, the “average percent stabilization of TTR” value in the series with TTR [5] is recorded as 189%. Further, the “RA (%): percent reduction of TTR aggregation rate at high inhibitor concentration” value on Y78F-TTR amounted to 59.57%. The Kd2 estimate result at V122I-TTR was “in the μM range”. Also, the “TTR tetramer stabilization in plasma” value in series [6] was “stabilized WT and V30M-TTR tetramers in plasma”. The “reduction in Caspase-3 activation” value in series [7] is given as 11.6%±4.0.
